Experimental data as given in the NIST ThermoML archive (doi:10.1016/j.fluid.2016.08.014).

Tests used:
[1] = refractive index (Na D-line) (dimensionless); conditions: 298.15 K; 101.33 kPa; Liquid; Standard Abbe refractometry
[2] = Liquid, Vibrating tube method

CNC=O [N-methylformamide]
Conditions	refractive index
[1]	1.43063

[2]
Conditions	mass density [kg/m3]
293.15 K, 200 kPa	1004
293.15 K, 500 kPa	1004
293.15 K, 1000 kPa	1004
293.15 K, 2500 kPa	1005
293.15 K, 5000 kPa	1006
293.15 K, 7600 kPa	1008
293.15 K, 10100 kPa	1009
293.15 K, 15000 kPa	1012
293.15 K, 20100 kPa	1015
293.15 K, 25100 kPa	1017
293.15 K, 30100 kPa	1020
293.15 K, 35000 kPa	1023
298.15 K, 101.33 kPa	999.361
303.15 K, 200 kPa	995
303.15 K, 500 kPa	995
303.15 K, 1100 kPa	995
303.15 K, 2500 kPa	996
303.15 K, 5100 kPa	998
303.15 K, 7600 kPa	999
303.15 K, 10000 kPa	1000
303.15 K, 15100 kPa	1004
303.15 K, 20100 kPa	1006
303.15 K, 25100 kPa	1009
303.15 K, 30000 kPa	1012
303.15 K, 35000 kPa	1014
313.15 K, 200 kPa	986
313.15 K, 500 kPa	986
313.15 K, 1100 kPa	987
313.15 K, 2600 kPa	987
313.15 K, 5100 kPa	989
313.15 K, 7500 kPa	990
313.15 K, 10100 kPa	992
313.15 K, 15000 kPa	995
313.15 K, 20000 kPa	998
313.15 K, 25100 kPa	1001
313.15 K, 30000 kPa	1004
313.15 K, 35000 kPa	1006
323.15 K, 100 kPa	977
323.15 K, 500 kPa	977
323.15 K, 1000 kPa	978
323.15 K, 2500 kPa	979
323.15 K, 5000 kPa	980
323.15 K, 7500 kPa	982
323.15 K, 10000 kPa	984
323.15 K, 15100 kPa	987
323.15 K, 20100 kPa	990
323.15 K, 25000 kPa	993
323.15 K, 30100 kPa	996
323.15 K, 35100 kPa	999
333.15 K, 100 kPa	969
333.15 K, 500 kPa	969
333.15 K, 1000 kPa	969
333.15 K, 2500 kPa	970
333.15 K, 5000 kPa	972
333.15 K, 7500 kPa	974
333.15 K, 10000 kPa	975
333.15 K, 15000 kPa	979
333.15 K, 20100 kPa	982
333.15 K, 25000 kPa	985
333.15 K, 30000 kPa	988
333.15 K, 35000 kPa	990
343.15 K, 100 kPa	960
343.15 K, 500 kPa	960
343.15 K, 1000 kPa	960
343.15 K, 2500 kPa	962
343.15 K, 5100 kPa	963
343.15 K, 7500 kPa	965
343.15 K, 10100 kPa	967
343.15 K, 15100 kPa	970
343.15 K, 20000 kPa	973
343.15 K, 25100 kPa	977
343.15 K, 30100 kPa	980
343.15 K, 35100 kPa	983
353.15 K, 100 kPa	950
353.15 K, 500 kPa	950
353.15 K, 1000 kPa	952
353.15 K, 2500 kPa	953
353.15 K, 5100 kPa	955
353.15 K, 7600 kPa	957
353.15 K, 10000 kPa	958
353.15 K, 15100 kPa	962
353.15 K, 20100 kPa	965
353.15 K, 25000 kPa	969
353.15 K, 30100 kPa	972
353.15 K, 35100 kPa	975
363.15 K, 100 kPa	942
363.15 K, 500 kPa	943
363.15 K, 1000 kPa	943
363.15 K, 2500 kPa	944
363.15 K, 5100 kPa	946
363.15 K, 7600 kPa	948
363.15 K, 10100 kPa	950
363.15 K, 15100 kPa	954
363.15 K, 20100 kPa	957
363.15 K, 25000 kPa	960
363.15 K, 30100 kPa	964
363.15 K, 35000 kPa	967
373.15 K, 100 kPa	934
373.15 K, 500 kPa	934
373.15 K, 1000 kPa	934
373.15 K, 2500 kPa	936
373.15 K, 5100 kPa	938
373.15 K, 7600 kPa	940
373.15 K, 10000 kPa	941
373.15 K, 15100 kPa	945
373.15 K, 20100 kPa	949
373.15 K, 25000 kPa	952
373.15 K, 30100 kPa	956
373.15 K, 35000 kPa	959
398.15 K, 100 kPa	911
398.15 K, 500 kPa	912
398.15 K, 1100 kPa	912
398.15 K, 2500 kPa	913
398.15 K, 5000 kPa	916
398.15 K, 7600 kPa	918
398.15 K, 10000 kPa	920
398.15 K, 15000 kPa	924
398.15 K, 20100 kPa	928
398.15 K, 25000 kPa	932
398.15 K, 30000 kPa	936
398.15 K, 35100 kPa	940
423.15 K, 100 kPa	888
423.15 K, 500 kPa	889
423.15 K, 1000 kPa	889
423.15 K, 2600 kPa	890
423.15 K, 5100 kPa	893
423.15 K, 7500 kPa	896
423.15 K, 10000 kPa	898
423.15 K, 15200 kPa	903
423.15 K, 20100 kPa	907
423.15 K, 25100 kPa	911
423.15 K, 30100 kPa	916
423.15 K, 35100 kPa	920
